Where two headings read alike, the source gives them in different places.

The term IC50 denotes the concentration needed to halve the response being measured.

The subject of data set [1] is E. coli ATCC25922. Also noted: method as in PMID 32391537. Conditions: complexes starred as Complex 1 / Complex 2; cited from earlier work.
Data set [2] has as its system C. albicans SC5134. Also noted: method as in PMID 32391537. Particulars: complexes starred as Complex 1 / Complex 2; cited from earlier work.
In data set [3] the test system is S. aureus Newman. Also noted: method as in PMID 32391537. Conditions: complexes starred as Complex 1 / Complex 2; cited from earlier work.
Data set [4] relates to OVCAR8 ovarian cancer cells. Nature of the data set: MTT cytotoxicity assay in OVCAR8 (cisplatin resistant) ovarian cancer cells. It is filed as cell-based, human. Conditions: 48 h incubation. On the procedure: (§1) Cells were exposed to increasing concentrations of the complexes (0.01–100 μM) for 24 and/or 48 h, at 37 °C. The IC50 values were calculated from dose–response curves using the colorimetric MTT assay. […] Most complexes presented a similar cytotoxicity profile compared to Auranofin, but higher activity compared to Cisplatin, and, most importantly, were active in the Cisplatin-resistant OVCAR8 cells (Table 2).
(§2) The cytotoxic activity of the complexes was evaluated in the A2780 (cisplatin sensitive) (Sigma-Aldrich) and OVCAR8 (cisplatin resistant) (ATCC) ovarian cancer cells. Cells were grown in RPMI-1640 medium (Gibco, Thermo Fisher) supplemented with 10% fetal bovine serum (FBS) and were maintained at 37 °C in a humidified atmosphere with 5% CO2. The complexes were initially dissolved in DMSO and then in culture medium to prepare serial dilutions in the range 10^−9–10^−4 M. After 24 and/or 48 h incubation the cellular viability was measured by the colorimetric MTT assay, as previously described.
A general note: Tetrazolium assays rely on reduction of a dye to a coloured formazan, in cell work by metabolically active cells.

In data set [5] the test system is C. glabrata CBS138. More on the design: method as in PMID 32391537. Conditions: complexes starred as Complex 1 / Complex 2; cited from earlier work.
In data set [6] the test system is A2780 ovarian cancer cells. More on the design: method as in PMID 32391537. Particulars: MTT, starred values, cited from earlier work.
In data set [7] the test system is A2780 ovarian cancer cells. Briefly: MTT cytotoxicity assay in A2780 (cisplatin sensitive) ovarian cancer cells. It is filed as cell-based, human. On the procedure:
as §1, §2

Data set [8] concerns the target human serum albumin (HSA) (Homo sapiens, UniProt P02768). More on the design: method as in PMID 26469679, PMID 22835721, PMID 32283915, doi:10.1016/j.jlumin.2011.06.005. Particulars: cited from earlier work.
The test system of a further data set is ΦX174 supercoiled DNA. Briefly: Electrophoretic mobility of supercoiled DNA. It is filed as binding. Conditions: 24 h, 37 °C, in words. As for the experimental part:
The potential interaction of the complexes with DNA was evaluated through the assessment of the electrophoretic mobility of supercoiled ϕX174 DNA, using a previously described method. To that end, a mixture was prepared containing 200 ng of supercoiled ϕX174 DNA (Promega) in 10 mM of phosphate buffer (pH 7.2) and increasing concentrations of Cisplatin, as a positive control, or the metal complexes (in a total volume of 20 μL). The mixture was incubated for 24 h at 37 °C, in the dark. As controls, samples having non-incubated plasmid and plasmid incubated with DMSO were also prepared. Then, all samples were prepared for electrophoresis through the addition of 2 μL of 10× DNA loading buffer (Applichem) and loading on an 0.8% agarose gel in TBE buffer (Thermo Fisher Scientific, Waltham, MA, USA). The gel was run at 90 V for approximately 3 h, stained using a 3× GelRed® (Biotium) solution in H2O, and the bands visualized using an AlphaImagerEP (Alpha Innotech) under UV light.

The test system of data set [9] is E. coli ATCC25922. Briefly: MIC determination, E. coli. It is filed as cell-based, Escherichia coli. Particulars: MH broth, 22 h, 37 °C. An excerpt: (§3) The bacterial strains Escherichia coli ATCC25922 and Staphylococcus aureus Newman were used in this work and maintained in Lennox Broth (LB) solid medium, composed of 10 g/L tryptone, 5 g/L yeast extract, 5 g/L NaCl and 20 g/L agar. The fungal strains Candida albicans SC5134 and C. glabrata CBS138 were used in this work and maintained in YPD solid medium, composed of 20 g/L glucose, 20 g/L peptone, 10 g/L yeast extract and 15 g/L agar. The strains were isolated from human infections.
(§4) The antimicrobial activity of the complexes towards the bacterial and fungal strains was assessed by the determination of the Minimal Inhibitory Concentration (MIC) of each complex towards the indicated microbial strains, based on standard methods, and as previously described. […] Serial 1:2 dilutions of stock solutions were prepared for each complex in Mueller–Hinton (MH) broth (Fluka Analytical) or RPMI-1640 medium (Sigma) supplemented with 20 g/L glucose and buffered with 0.165 M morpholinepropanesulphonic acid (RPMIG) to pH 7.0. Solutions prepared with MH were used for testing bacteria, while those prepared with RPMIG were used for testing fungi. For antibacterial activity assays, the final concentrations ranged from 250 to 0.24 μg/mL (when stock solution final concentration was 10 mg/mL), 125 μg/mL to 0.12 μg/mL (when stock solution final concentration was 5 mg/mL) and 62.5 to 0.06 μg/mL (when stock solution final concentration was 2.5 mg/mL). For antifungal assays, the final concentrations ranged from 125 μg/mL to 0.12 μg/mL (when stock solution final concentration was 10 mg/mL), 62.5 to 0.06 μg/mL (when stock solution final concentration was 5 mg/mL) and 31.25 to 0.03 μg/mL (when stock solution final concentration was 2.5 mg/mL). Then, 100 μL aliquots of adequately diluted bacterial suspensions of S. aureus Newman or E. coli ATCC 25922 were mixed with the MH serially diluted complexes aliquots to obtain 5 × 10^5 CFU/mL. In the case of fungi, cultures were diluted to obtain a final optical density of 0.025, measured at 530 nm (OD530). Bacterial suspensions were prepared from cultures grown for 5 h in MH broth at 37 °C and 250 rev·min^−1 and adequately diluted with fresh MH medium, while fungal suspensions were prepared from overnight cultures grown in YPD broth at 30 °C and 250 rev.min^−1 and diluted in buffered RPMIG. After 22 h of incubation at 37 °C (bacteria) or 24 h at 35 °C (fungi), the wells’ content was resuspended by pipetting and the OD640 (bacteria) or OD530 (fungi) were measured in a SPECTROstar Nano microplate reader (BMG Labtech).
(§5) At least three independent experiments were performed in duplicate for each complex under study. […] Positive (no complex) and negative controls (no inoculum) were performed for each experiment. The effect of 5% (V/V) DMSO on microbial growth was also assessed.

In a further data set the test system is Huh7 cells. Nature of the data set: Cell viability (cell confluency, Alamar Blue) of P. berghei-infected Huh7 cells. It is filed as cell-based. Particulars: 5 µM, in words. As for the experimental part: The in vitro liver stage activity of gold complexes was assessed against P. berghei-infected Huh7 cells, as previously described. Briefly, Huh7 cells were cultured in RPMI-1640 medium supplemented with 10% (v/v) fetal bovine serum, 1% (v/v) penicillin/streptomycin, 1% (v/v) glutamine, 1% (v/v) non-essential amino acids and 10 mM HEPES. On the day prior to infection, Huh7 cells were seeded in 96-well plates at a density of approximately 3.1 × 10^4 cell/cm^2 and incubated at 37 °C, 5% CO2. Stock solutions of the complexes were initially prepared in DMSO and serially diluted in infection medium, i.e., culture medium supplemented with gentamicin (50 µg/mL) and fungizone (0.8 µg/mL), to obtain the test concentrations. As a control, DMSO was diluted in infection medium to a percentage that equals that of the highest compound concentrations tested. These dilutions were added to the cells in triplicates and incubated for 1 h at 37 °C, 5% CO2, after which 1 × 10^4 luciferase-expressing P. berghei sporozoites were added to each well. Plates were centrifuged at 1800× g for 5 min at room temperature and incubated for the duration of the assay. At 46 h post-infection (hpi), the impact of each compound concentration on cell viability was assessed by the Alamar Blue (Invitrogen, Buckinghamshire, UK) assay, according to the manufacturer’s recommendations. Infection was next assessed by bioluminescence, employing the Firefly Luciferase Assay Kit 2.0 (Biotium, Fremont, CA, USA), according to the manufacturer’s recommendations. For IC50 determination, nonlinear regression analysis was employed to fit the normalized results of the dose–response curves, using GraphPad Prism 8 (GraphPad software, La Jolla, CA, USA).
A general note: Resazurin is reduced to fluorescent resorufin, in cell work by metabolically active cells.

The test system of data set [10] is S. aureus Newman. Briefly: MIC determination, S. aureus. Format: cell-based, Staphylococcus aureus. Particulars: MH broth, 22 h, 37 °C.
Source text: as §3, §4, §5

Data set [11] has as its system zebrafish (Danio rerio) embryos. Briefly: Acute toxicity (mortality) in zebrafish embryo. Format: in vivo. Conditions: 72 hpf embryos, 0.1–10 μM, 48 h, in words. The source says:
Toxicity is a major challenge for drug development and is the leading cause of drug failure. Consequently, the evaluation of the potential toxicity represents a critical step in the development of new drugs. In this context, the zebrafish embryo represents a notable in vivo vertebrate model for studying the toxic effects of chemical compounds due to the small size, robustness, multiple progenies from a single mating, chemical permeability, easiness of observation and maintenance under laboratory conditions. In addition, the close phylogeny of zebrafish and mammals, with highly conserved signaling pathways, makes this species increasingly used and ideal for performing toxicological studies. Therefore, we evaluated the complexes acute toxicity by measuring mortality of 72 h post-fertilization (hpf) zebrafish embryos when incubated with increasing concentrations of the Au(III) complexes for 48 h.
To test the toxicological effect of the gold (III) complexes, zebrafish (Danio rerio) embryos at developmental stage of 72 h post-fertilization (hpf) were exposed to different concentrations of the target complexes and mortality was assessed for 48 h of treatment. […]

Data set [12] concerns C. glabrata CBS138. Briefly: MIC determination, C. glabrata. Conditions: RPMIG, 24 h, 35 °C. Format: cell-based, Candida glabrata.
Source text: as §3, §4, §5

The test system of data set [13] is C. albicans SC5134. Nature of the data set: MIC determination, C. albicans. It is filed as cell-based, Candida albicans. Conditions: RPMIG, 24 h, 35 °C.
Source text: as §3, §4, §5

Where [14] appears, read: 24 h incubation, read-out: IC50 A2780, 24 h.
Where [15] appears, read: 48 h incubation, read-out: IC50 A2780, 48 h.

Chain of human serum albumin (HSA) (P02768 25-609): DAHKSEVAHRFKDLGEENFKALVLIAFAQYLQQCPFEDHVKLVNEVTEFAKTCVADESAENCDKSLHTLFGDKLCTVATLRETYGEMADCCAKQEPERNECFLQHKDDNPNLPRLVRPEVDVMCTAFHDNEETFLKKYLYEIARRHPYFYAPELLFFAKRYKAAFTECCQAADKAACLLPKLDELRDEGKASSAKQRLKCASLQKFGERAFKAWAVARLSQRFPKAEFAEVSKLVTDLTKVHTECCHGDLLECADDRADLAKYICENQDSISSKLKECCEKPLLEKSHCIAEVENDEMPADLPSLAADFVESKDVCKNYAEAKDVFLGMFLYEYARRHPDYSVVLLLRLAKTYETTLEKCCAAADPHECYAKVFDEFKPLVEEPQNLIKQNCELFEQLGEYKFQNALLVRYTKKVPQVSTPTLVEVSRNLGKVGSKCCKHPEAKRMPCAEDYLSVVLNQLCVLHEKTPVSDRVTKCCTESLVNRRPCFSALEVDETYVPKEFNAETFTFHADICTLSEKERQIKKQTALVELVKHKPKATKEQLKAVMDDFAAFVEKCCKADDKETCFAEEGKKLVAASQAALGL

Consider `CC[N+](CC)(CC)CC.CCn1c2c(sc1=S)[S][Au-]1([S]c3sc(=S)n(CC)c3[S]1)[S]2` [[N][AuSEt(=S)]], for which the “MIC E. coli ATCC25922” value in the data set with E. coli ATCC25922 [1] was >125 µg/mL. The “MIC C. albicans SC5134” value in the data set with C. albicans SC5134 [2] is listed as 19.9 ± 2.4 µg/mL. Further, the “MIC S. aureus Newman” value with S. aureus Newman [3] was 12.1 ± 3.9 µg/mL. Besides, the IC50 in data set [4] was 3.76 ± 0.71 µM; in data set [6] (setting [14]), 4.23 ± 0.8 µM; in [6] (setting [15]) it was 1.3 ± 0.32 µM. In addition, the “MIC C. glabrata CBS138” value with C. glabrata CBS138 [5] is listed as 9.7 ± 2.7 µg/mL.
Regarding `N.N.[Cl][Pt][Cl]` [Cisplatin, reference compound], the IC50 in data set [4] is 10.1 ± 2.3 µM; in data set [7] (setting [14]) it was 21.1 ± 5 µM; in data set [6] (setting [15]), 3.6 ± 1.25 µM. The “binding constant to HSA” value in [8] is reported as 10^2 M^−1. Also, the “conformational changes / electrophoretic mobility of DNA” value in the data set on ΦX174 supercoiled DNA is “able to alter the electrophoretic mobility of the nicked and supercoiled forms of DNA in a dose-dependent way”.
With `CCN1C(=C(C#N)C#N)SC2=C1[S][Au-]1([S]2)[S]C2=C([S]1)N(CC)C(=C(C#N)C#N)S2.CC[N+](CC)(CC)CC` [[N][AuSEt(=C(CN)2)]], the figures for the 50% inhibitory concentration (IC50) in data set [4], in data set [7] (setting [14]) and in [7] (setting [15]) were 1.48 ± 0.41 µM, 1.32 ± 0.2 µM and 0.17 µM, respectively. Further, the “MIC E. coli ATCC25922” value against E. coli ATCC25922 [9] was >125 µg/mL. For the same compound, the “toxicity seen as lower cell confluency” value in the data set on Huh7 cells was “some degree of toxicity”. Moreover, the “MIC S. aureus Newman” value against S. aureus Newman [10] is >125 µg/mL. Besides, in data set [11], the “toxicity in zebrafish embryo” value was “more toxic than [N][AuSEt(=S)]”. For the same compound, the “MIC C. glabrata CBS138” value in the data set with C. glabrata CBS138 [12] is given as >62.5 µg/mL. In addition, the “MIC C. albicans SC5134” value in the data set on C. albicans SC5134 [13] is listed as >62.5 µg/mL.
On to `CCCn1c2c(sc1=S)[S][Au-]1([S]c3sc(=S)n(CCC)c3[S]1)[S]2.c1ccc([P+](c2ccccc2)(c2ccccc2)c2ccccc2)cc1` [[P][AuSPr(=S)]], for which the “MIC E. coli ATCC25922” value in the data set on E. coli ATCC25922 [1] is listed as >125 µg/mL. Further, in the data set on C. albicans SC5134 [2], the “MIC C. albicans SC5134” value is given as >125 µg/mL. Moreover, the “MIC S. aureus Newman” value in the data set on S. aureus Newman [3] is listed as >125 µg/mL. Further, the “MIC C. glabrata CBS138” value in the data set on C. glabrata CBS138 [5] is reported as >125 µg/mL. The IC50 in data set [6] (setting [14]) was 4.6 ± 1.15 µM; in data set [6] (setting [15]), 0.52 ± 0.23 µM.
